From US20100062078A1, “PHARMACEUTICAL COMPOSITION FOR TREATING CANCER AND THE SIGNALING PATHWAY THEREOF” (priority 2008, published 2010)

Legend:
[1] = XTT cell proliferation assay (cytotoxicity); format: cell-based
Protocol: (§1) Cells were seeded at 7×10^3 per well in 96-well culture plates before treatment with different concentrations of protoapigenone for 12, 24 and/or 48 hours. Next, the cytotoxicity of protoapigenone was determined using XTT cell proliferation assay (Sigma, St. Louis, Mo.). The absorbance of wavelength at 490 nm (OD490) and 650 nm (OD650) were determined respectively by enzyme-linked immunosorbent assay (ELISA) reader, and 50% of inhibitory concentration (IC50) was calculated by the value of OD490-OD650. In addition, in order to evaluate the long-term effect, the cells were treated with different concentration of protoapigenone for 3 hours, then were incubated with fresh medium for 14 days so as to form colonies. Finally, the cells were stained with crystal violet and were observed under the microscope.

HeLa [2] = assay: XTT cell proliferation assay (cytotoxicity); format: cell-based; conditions: Homo sapiens; cervical cancer cell line HeLa
Protocol: as §1

C33A = assay: XTT cell proliferation assay (cytotoxicity); format: cell-based; conditions: Homo sapiens, C-33-A; cervical cancer cell line C33A
Protocol: as §1

LNCap = assay: TUNEL assay; format: cell-based, human; conditions: LNCap, 2.5, 5 and 10 μM, 12 or 24 hours
Protocol: TUNEL assay is performed to detect whether cellular DNA is fragmented. The prostate cancer cells were treated with protoapigenone at various concentrations (2.5, 5 and 10 μM) for 12 or 24 hours, then were stained with TUNEL using the DeadEnd Colorimetric TUNEL system (Promega, Madison, Wis.). In brief, the prostate cancer cells were fixed with 4% paraformaldehyde for 30 minutes after protoapigenone treatment. Next, the fixed cells were incubated with digoxigenin-conjugated dUTP and nucleotide mixture in a recombinant terminal deoxynucleotide transferase-catalyzed reaction in the humidified atmosphere at 37° C. Subsequently, they were immersed in the stop buffer for 15 minutes at 37° C. The Cells were washed with PBS, then were incubated in DAB solutions for 15 minutes in dark. The stained cells were observed under the microscope. The percentage of TUNEL-positive cells were counted in 1000 cells, and the apoptosis index in the later period was calculated.

HeLa [3] = assay: Cell cycle distribution; format: cell-based, human
[4] = Body weight, complete blood count and biochemical profile of LNCap-xenografted nude mice; format: in vivo; conditions: for BUN / Creatine / Got (glutamic-oxaloacetic transaminase) / Gpt (glutamic-pyruvic transaminase) / MCV (mean corpuscular volume) / RBC / WBC / Body weight: LNCap xenograft
Protocol: MDAH-2774 human ovarian cancer cells of 2×10^6 (or LNCap prostate cancer cells of 1×10^6) in 0.1 ml PBS were injected subcutaneously at the right flank of 6-week-old female nude mice (Foxnlun/Foxulun). When tumors became visible (approximately 3×3 mm in size), the mice were randomly grouped and treated intraperitoneally with protoapigenone or vehicle every other day. […] Tumor size and body weight were measured twice a week using calipers, and their tumor volumes were calculated according to a standard formula: width^2×length/2. After treatment with protoapigenone for 5 weeks, the mice xenografted with LNCap cells were sacrificed by deep anesthesia, and the blood sampling by cardiac aspiration was done immediately after anesthesia. Complete blood count of the nude mice blood was determined by Sysmex XE-2100 (TOA Medical Electronics, Kobe, Japan), and the plasma blood urea nitrogen (BUN), creatine (Cr), asparatate aminotransferase (AST), and alanine aminotransferase (ALT) levels were determined by Beckman LX20 (Beckman-Coulter, U.S.A.)

MDAH-2774 [5] = assay: XTT cell proliferation assay (cytotoxicity); format: cell-based, human; conditions: Homo sapiens
Protocol: as §1

MDAH-2774 [6] = assay: Annexin V apoptosis assay; format: cell-based, human; conditions: MDAH-2774, 10 μM, 3 hours
Protocol: (§2) The theory of this assay is to detect early apoptotic cells during the apoptotic progression. The ovarian cancer cells and the prostate cancer cells respectively were incubated with protoapigenone at 10 μM for 3 hours on chamber slides, washed with cold PBS twice and stained with a binding buffer containing annexin V-fluorescein isothiocyanate (FITC) (1 mg/ml; Strong Biotech, Taipei, Taiwan) and 4,6-diamidino-2-phenylinodole (Sigma-Aldrich) at 25° C. for 15 minutes. The stained cells were washed with PBS twice and observed under the fluorescent microscope.

LNCap cells = assay: Annexin V apoptosis assay; format: cell-based, human; conditions: 10 μM, 3 hours
Protocol: as §2

SKOV3 = assay: Annexin V apoptosis assay; format: cell-based, human; conditions: SKOV3, 10 μM, 3 hours
Protocol: as §2

Q: What does the source list for `O=C1C=CC(O)(c2cc(=O)c3c(O)cc(O)cc3o2)C=C1` [protoapigenone]?
A: IC50 ([1]; HOSE 6-3 immortalized ovarian epithelial cells, immortalized human ovarian epithelial cells HOSE 6-3): 8.98 ± 0.33 µM; IC50 ([1]; HOSE 11-12 immortalized ovarian epithelial cells, immortalized human ovarian epithelial cells HOSE 11-12): 10.1 ± 0.53 µM; IC50 ([1]; MCF-10A immortalized breast epithelial cells, immortalized human breast epithelial cell MCF-10A): 33.6 ± 0.53 µM; IC50 (HeLa [2]): 3.66 ± 0.61 µM; IC50 (C33A): 4.69 ± 0.21 µM; ratio of TUNEL positive cells (LNCap): increased along with time and the increased protoapigenone concentrations; cell cycle distribution (HeLa [3]): arrested at G2/M phase; BUN ([4]; high dose, 5 weeks): 24.8 ± 9.0 mg/dL; Creatine ([4]; high dose, 5 weeks): 0.48 ± 0.10 mg/dL; Got (glutamic-oxaloacetic transaminase) ([4]; high dose, 5 weeks): 630.7 ± 165.5 U/L; Gpt (glutamic-pyruvic transaminase) ([4]; high dose, 5 weeks): 137.3 ± 55.8 U/L; MCV (mean corpuscular volume) ([4]; high dose, 5 weeks): 47.7 ± 0.9 fL; RBC ([4]; high dose, 5 weeks): 7.3 ± 0.7 10^6/µL; WBC ([4]; high dose, 5 weeks): 2.7 ± 1.0 10 × 3/μl; Body weight ([4]; high dose, after treatment (5 weeks)): 13.5 ± 0.6 g; Body weight ([4]; high dose, before treatment): 11.5 ± 0.8 g; BUN ([4]; low dose, 5 weeks): 23.9 ± 3.2 mg/dL; Creatine ([4]; low dose, 5 weeks): 0.43 ± 0.05 mg/dL; Got (glutamic-oxaloacetic transaminase) ([4]; low dose, 5 weeks): 520.5 ± 169.9 U/L; Gpt (glutamic-pyruvic transaminase) ([4]; low dose, 5 weeks): 130.0 ± 119.9 U/L; MCV (mean corpuscular volume) ([4]; low dose, 5 weeks): 46.8 ± 0.8 fL; RBC ([4]; low dose, 5 weeks): 7.3 ± 0.6 10^6/µL; WBC ([4]; low dose, 5 weeks): 2.3 ± 0.7 10 × 3/μl; Body weight ([4]; low dose, after treatment (5 weeks)): 13.6 ± 1.2 g; Body weight ([4]; low dose, before treatment): 11.8 ± 0.4 g; body weight, control vs protoapigenone-treated group ([4]; LNCap-xenografted nude mice, 5 weeks): no significant difference; impairment of hematopoiesis, liver function, or renal function ([4]; LNCap-xenografted nude mice, intraperitoneal injection, 5 weeks): No significant impairment; inhibition at 1 µM (MDAH-2774 [5]; MDAH-2774, 1 μM protoapigenone, read-out: inhibition of cell growth): 25%; inhibition at 2.5 µM (MDAH-2774 [5]; MDAH-2774, 2.5 μM protoapigenone, read-out: inhibition of cell growth): 53.4%; IC50 (MDAH-2774 [5]; ovarian cancer cell line MDAH-2774, means ± SD of three independent experiments): 0.69 ± 0.92 µM; cell apoptosis (annexin V-FITC) (MDAH-2774 [6]): 24.5%; ratio of annexin V-FITC positive cells (LNCap cells): 24.2±1.3%; cell apoptosis (annexin V-FITC) (SKOV3): 34.2%
